Source: the NIST ThermoML archive (doi:10.1016/j.fluid.2019.112263)

How the values were obtained:
[1] = 101.33 kPa, Liquid, transient hot wire
[2] = wn = mass fraction of the nth substance listed; conditions: 100 kPa, Liquid, transient hot wire

O [water]
[1]
Conditions | thermal conductivity [W/m/K]
299.55 K | 0.613
309.44 K | 0.6207
319.56 K | 0.6399
339.38 K | 0.653
349.82 K | 0.6704

CCCCCCCCCC(=O)OC [methyl decanoate] + CCCO
[2]
Conditions | thermal conductivity [W/m/K]
287.88 K, w1 = 0.2022 | 0.1527
287.9 K, w1 = 0.4008 | 0.1495
287.9 K, w1 = 0.5998 | 0.1481
287.98 K, w1 = 0.7993 | 0.1462
297.73 K, w1 = 0.2022 | 0.1501
297.73 K, w1 = 0.7993 | 0.1442
297.77 K, w1 = 0.4008 | 0.1473
297.95 K, w1 = 0.5998 | 0.1454
307.71 K, w1 = 0.2022 | 0.1479
307.75 K, w1 = 0.4008 | 0.1453
307.77 K, w1 = 0.7993 | 0.142
307.81 K, w1 = 0.5998 | 0.1435
317.64 K, w1 = 0.2022 | 0.1459
317.69 K, w1 = 0.4008 | 0.1426
317.74 K, w1 = 0.7993 | 0.1397
317.81 K, w1 = 0.5998 | 0.1414
327.55 K, w1 = 0.2022 | 0.1433
327.56 K, w1 = 0.5998 | 0.1394
327.59 K, w1 = 0.4008 | 0.1408
327.67 K, w1 = 0.7993 | 0.1374
337.58 K, w1 = 0.2022 | 0.1412
337.62 K, w1 = 0.5998 | 0.1371
337.68 K, w1 = 0.7993 | 0.1351
337.72 K, w1 = 0.4008 | 0.138
347.56 K, w1 = 0.2022 | 0.1382
347.64 K, w1 = 0.4008 | 0.136
347.65 K, w1 = 0.5998 | 0.1348
347.65 K, w1 = 0.7993 | 0.1328
357.48 K, w1 = 0.2022 | 0.1362
357.48 K, w1 = 0.7993 | 0.1299
357.51 K, w1 = 0.5998 | 0.1328
357.57 K, w1 = 0.4008 | 0.1341

CCO [ethanol]
[1]
Conditions | thermal conductivity [W/m/K]
276.51 K | 0.1719
287.55 K | 0.1677
297.25 K | 0.1645
307.16 K | 0.1617

CCCCCCCCCC(=O)OC [methyl decanoate] + CCCCO
[2]
Conditions | thermal conductivity [W/m/K]
287.9 K, w1 = 0.2001 | 0.1497
287.95 K, w1 = 0.8003 | 0.146
287.98 K, w1 = 0.599 | 0.1468
288.35 K, w1 = 0.4002 | 0.1476
297.66 K, w1 = 0.4002 | 0.1458
297.69 K, w1 = 0.2001 | 0.1473
297.81 K, w1 = 0.8003 | 0.1436
298 K, w1 = 0.599 | 0.1441
307.7 K, w1 = 0.2001 | 0.145
307.74 K, w1 = 0.4002 | 0.1436
307.81 K, w1 = 0.599 | 0.1427
307.86 K, w1 = 0.8003 | 0.1412
317.55 K, w1 = 0.2001 | 0.1431
317.7 K, w1 = 0.8003 | 0.1395
317.74 K, w1 = 0.4002 | 0.1418
317.81 K, w1 = 0.599 | 0.1403
327.62 K, w1 = 0.2001 | 0.1398
327.73 K, w1 = 0.4002 | 0.1388
327.78 K, w1 = 0.599 | 0.1382
327.78 K, w1 = 0.8003 | 0.137
337.59 K, w1 = 0.2001 | 0.1379
337.59 K, w1 = 0.4002 | 0.1372
337.66 K, w1 = 0.599 | 0.136
337.78 K, w1 = 0.8003 | 0.1346
347.49 K, w1 = 0.2001 | 0.1363
347.58 K, w1 = 0.599 | 0.1339
347.73 K, w1 = 0.4002 | 0.135
347.8 K, w1 = 0.8003 | 0.1318
357.56 K, w1 = 0.2001 | 0.1337
357.68 K, w1 = 0.4002 | 0.1325
357.71 K, w1 = 0.599 | 0.1317
357.76 K, w1 = 0.8003 | 0.13

CCCCCCCCCC(=O)OC [methyl decanoate] + CCCCCO
[2]
Conditions | thermal conductivity [W/m/K]
287.96 K, w1 = 0.1941 | 0.1495
287.96 K, w1 = 0.4008 | 0.1482
287.97 K, w1 = 0.6035 | 0.1467
288 K, w1 = 0.8002 | 0.1456
297.72 K, w1 = 0.1941 | 0.1477
297.73 K, w1 = 0.4008 | 0.1463
297.76 K, w1 = 0.6035 | 0.1453
297.85 K, w1 = 0.8002 | 0.1433
307.69 K, w1 = 0.8002 | 0.1414
307.72 K, w1 = 0.6035 | 0.1432
307.74 K, w1 = 0.4008 | 0.144
307.77 K, w1 = 0.1941 | 0.1451
317.73 K, w1 = 0.4008 | 0.142
317.74 K, w1 = 0.8002 | 0.1396
317.81 K, w1 = 0.6035 | 0.1406
317.86 K, w1 = 0.1941 | 0.1433
327.58 K, w1 = 0.4008 | 0.1405
327.66 K, w1 = 0.6035 | 0.1386
327.75 K, w1 = 0.8002 | 0.1366
327.82 K, w1 = 0.1941 | 0.1408
337.54 K, w1 = 0.8002 | 0.1347
337.6 K, w1 = 0.1941 | 0.1391
337.61 K, w1 = 0.6035 | 0.1361
337.76 K, w1 = 0.4008 | 0.1373
347.58 K, w1 = 0.4008 | 0.1356
347.61 K, w1 = 0.8002 | 0.1315
347.79 K, w1 = 0.1941 | 0.1367
347.85 K, w1 = 0.6035 | 0.1336
357.66 K, w1 = 0.4008 | 0.1333
357.7 K, w1 = 0.6035 | 0.132
357.75 K, w1 = 0.8002 | 0.1299
357.76 K, w1 = 0.1941 | 0.1345
